In brackets after ≈: the same amount, converted by molar mass. Read-outs that look alike come from different tables or passages of the source. Where a SMILES comes first, the peptide text is derived from it. Bridges are numbered along the chain shown (N, C = ends). The star is where a group is joined. Palmitoyl = CCCCCCCCCCCCCCCC(=O)*
Assays:
Type in all cases: cell-based
[1] = test system: Candida albicans ATCC 10231
Procedure: (§1) The Staphylococcus aureus ATCC 25923, Staphylococcus epidermidis ATCC 14990, Escherichia coli ATCC 25922, Pseudomonas aeruginosa ATCC 9027, Candida albicans ATCC 10231, Candida glabrata ATCC 15126, Candida lipolytica PCM 2680-FY, and Candida tropicalis PCM 2709-FY strains were acquired from the Polish Collection of Microorganisms (PCM, Polish Academy of Sciences, Wrocław, Poland) and from the American Type Culture Collection (ATCC). All the strains were stored at −80 °C in Roti-Store cryo vials and before the tests were transferred into fresh Mueller–Hinton broth (MHB, Biocorp, Warsaw, Poland) for bacteria or RPMI-1640 (Sigma-Aldrich, Steinheim, Germany) for fungi and incubated for 24 h at 37 °C. Then, the cultures were seeded on Mueller–Hinton agar (BioMaxima, Lublin, Poland) or Sabouraud dextrose agar (SDA, BioMaxima, Lublin, Poland) plates, respectively, and incubated as just mentioned. These agar cultures were used for further microbiological assays. Cell densities for all assays were adjusted spectrophotometrically (Multiskan GO Microplate Spectrophotometer, Thermo Fisher Scientific, Vantaa, Finland) at 600 and 660 nm for bacteria and fungi, respectively.
(§2) The MICs were determined by broth microdilution method according to the Clinical and Laboratory Standard Institute guidelines For this purpose, initial inoculums of bacteria (5 × 10^5 CFU/mL) in MHB and yeasts (2 × 10^3 CFU/mL) in RPMI-1640 with 2% D-glucose were exposed to the ranging concentration of lipopeptides (0.5–256 μg/mL) and incubated at 37 °C for 18 h and 24 h, respectively. The experiments were conducted on 96-well microtiter polystyrene plates. The growth was assessed visually after incubation and the MIC was assumed as the lowest peptide concentration at which a noticeable growth of microorganisms was inhibited. All experiments were conducted in triplicate.

[2] = test system: Pseudomonas aeruginosa ATCC 9027
Procedure: as §1, §2

[3] = test system: Candida albicans ATCC 10231; remark: listed apart in the source
Procedure, shortened: (§3)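 Adherent cells remaining after a 24 h incubation and PBS washes are treated with test compounds (0.5–256 μg/mL) for another 24 h at 37 °C. Viability is then scored with resazurin, and the minimal biofilm eradication concentration is the lowest level at which dye reduction stays at or below 10 ± 0.5% of the control range.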

[4] = test system: Escherichia coli ATCC 25922
Procedure, shortened: as §3

[5] = test system: Pseudomonas aeruginosa ATCC 9027; remark: listed apart in the source
Procedure, shortened: as §3

[6] = test system: Staphylococcus epidermidis ATCC 14990
Procedure, shortened: as §3

[7] = test system: Candida albicans ATCC 10231; remark: listed apart in the source
Procedure: as §1
(§4) The assay was performed to evaluate the effect of the lipopeptides in preventing biofilm formation. The preparation of inoculums was followed by a ca. 500-fold dilution of the 24 h cultures of microorganisms. Briefly, 50 μL of the compounds in the concentration range, diluted in appropriate medium, were prepared on 96-well polystyrene flat-bottom plates. Subsequently, the 50 μL of the bacterial/fungal inoculums were added to reach the same microbial density as that in the MBEC assay. After 24 h of incubation at 37 °C, the wells were rinsed three times with PBS and the fresh media with resazurin (4 g/L) were added. The MBICs were read after 1 h. All experiments were conducted in triplicate.

[8] = test system: Candida glabrata ATCC 15126
Procedure: as §1, §4

[9] = test system: Candida lipolytica PCM 2680-FY
Procedure: as §1, §4

[10] = test system: Candida tropicalis PCM 2709-FY
Procedure: as §1, §4

[11] = test system: Escherichia coli ATCC 25922; remark: listed apart in the source
Procedure: as §1, §4

[12] = test system: Pseudomonas aeruginosa ATCC 9027; remark: listed apart in the source
Procedure: as §1, §4

[13] = test system: Staphylococcus aureus ATCC 25923
Procedure: as §1, §4

[14] = test system: Staphylococcus epidermidis ATCC 14990; remark: listed apart in the source
Procedure: as §1, §4

[15] = test system: human red blood cells (hRBCs); assay: Hemolysis assay; conditions: peptide concentration causing 50% hemolysis; 4% (v/v) hRBCs in PBS, 1 h, 37 °C, absorbance 540 nm, triplicate
Procedure: The hemolysis assay was performed by using the method reported previously. Fresh human red blood cells (hRBCs) with anticoagulant (EDTA) were rinsed three times with a PBS by centrifugation at 800× g for 10 min and diluted with PBS. The lipopeptides were serially diluted on a 96-well microtiter polystyrene plate and hRBCs were added up to a final volume of 100 μL. The peptide concentration ranged between 0.5 and 256 μg/mL and the final hRBCs concentration was 4% (v/v). Controls for zero hemolysis (blank) and 100% hemolysis consisted of hRBCs suspended in PBS and 1% of Triton-X 100, respectively. The plate was incubated for 1 h at 37 °C and then centrifuged (800× g, 10 min, 4 °C). Subsequently, the supernatant was […] to new microtiter plates and the absorbance at 540 nm was measured. All experiments were conducted in triplicate. HC50 was calculated using an ic50.tk tool. Protocol of the study received approval from the local Bioethics Committee at the Medical University of Gdańsk (NKBBN/262/2019, approval date: 10 June 2019).

[16] = 24 h biofilm on polystyrene plates, 24 h exposure at 37 °C, resazurin, triplicate
[17] = prevention of biofilm formation on polystyrene plates, 24 h at 37 °C, resazurin, triplicate

Compound	HC50 [15] [µg/mL]	MIC C. albicans ([1]; ATCC 10231, 24 h) [µg/mL]	MIC P. aeruginosa ([2]; ATCC 9027, 18 h) [µg/mL]	MBEC C. albicans ([3]; ATCC 10231, 24 h) [µg/mL]	MBEC E. coli ([4]; ATCC 25922, 24 h) [µg/mL]	MBEC P. aeruginosa ([5]; ATCC 9027, 24 h) [µg/mL]	MBEC S. epidermidis ([6]; ATCC 14990, 24 h) [µg/mL]	MBIC C. albicans ([7]; ATCC 10231, 24 h) [µg/mL]	MBIC C. glabrata ([8]; ATCC 15126, 24 h) [µg/mL]	MBIC C. lipolytica ([9]; 24 h) [µg/mL]	MBIC C. tropicalis ([10]; PCM 2709-FY, 24 h) [µg/mL]	MBIC E. coli ([11]; ATCC 25922, 24 h) [µg/mL]	MBIC P. aeruginosa ([12]; ATCC 9027, 24 h) [µg/mL]	MBIC S. aureus ([13]; ATCC 25923, 24 h) [µg/mL]	MBIC S. epidermidis ([14]; ATCC 14990, 24 h) [µg/mL]	other results
CCCCCCCCCCCCCCCC(=O)N[C@H]1CSSC[C@@H](C(N)=O)NC(=O)[C@H](CCCCN)NC(=O)[C@H](CCCCN)NC(=O)[C@H](CCCCN)NC(=O)[C@H](CCCCN)NC1=O [C2, C16-CKKKKC-NH2] (Palmitoyl-CKKKKC-NH2; disulfide 1-6)	30.6 ± 1.1															MIC C. albicans ([1]; broth microdilution (CLSI), RPMI-1640 with 2% D-glucose, 2 × 10^3 CFU/mL, 37 °C, 24 h, visual, triplicate): 4 µg/mL (≈ 4.11 µM); MIC P. aeruginosa ([2]; broth microdilution (CLSI), MHB, 5 × 10^5 CFU/mL, 37 °C, 18 h, visual, triplicate): 32 µg/mL (≈ 32.9 µM); MBEC C. albicans [3, 16]: 64 µg/mL; MBEC E. coli [4, 16]: 64 µg/mL; MBEC P. aeruginosa [5, 16]: > 256 µg/mL; MBEC S. epidermidis [6, 16]: 32 µg/mL; MBIC C. albicans [7, 17]: 16 µg/mL; MBIC C. glabrata [8, 17]: 32 µg/mL; MBIC C. lipolytica [9, 17]: 8 µg/mL; MBIC C. tropicalis [10, 17]: 8 µg/mL; MBIC E. coli [11, 17]: 32 µg/mL; MBIC P. aeruginosa [12, 17]: 64 µg/mL; MBIC S. aureus [13, 17]: 16 µg/mL; MBIC S. epidermidis [14, 17]: 4 µg/mL
CCCCCCCCCCCCCCCC(=O)N[C@@H](CCCCN)C(=O)N[C@@H](CCCCN)C(=O)N[C@@H](CCCCN)C(=O)N[C@@H](CCCCN)C(N)=O [L2, C16-KKKK-NH2] (Palmitoyl-KKKK-NH2)	105.9 ± 8.0	32 (≈ 41.7 µM)	16 (≈ 20.8 µM)	256	64	>256	32	128	128	32	16	32	64	32	16	
CCCCCCCCCCCCCCCC(=O)N[C@@H](CCCCN)C(=O)N[C@@H](CCCCN)C(=O)N[C@@H](CCCNC(=N)N)C(=O)N[C@@H](CCCCN)C(N)=O [L5, C16-KKRK-NH2] (Palmitoyl-KKRK-NH2)	96.7 ± 1.4	32 (≈ 40.2 µM)	64 (≈ 80.4 µM)	256	64	256	32	64	128	32	16	32	64	32	16	
CCCCCCCCCCCCCCCC(=O)N[C@H]1CSSC[C@@H](C(N)=O)NC(=O)[C@H](CCCCN)NC(=O)[C@H](CCCCN)NC(=O)[C@H](CCCCN)NC1=O [C1, C16-CKKKC-NH2] (Palmitoyl-CKKKC-NH2; disulfide 1-5)	43.9 ± 3.5	8 (≈ 9.48 µM)	256 (≈ 303 µM)	256	256	256	32	32	32	16	32	64	128	16	16	
CCCCCCCCCCCCCCCC(=O)N[C@@H](CCCCN)C(=O)N[C@@H](CCCCN)C(=O)N[C@@H](CCCCN)C(=O)N[C@@H](CCCNC(=N)N)C(N)=O [L6, C16-KKKR-NH2] (Palmitoyl-KKKR-NH2)	89.7 ± 2.4	32 (≈ 40.2 µM)	64 (≈ 80.4 µM)	128	256	256	32	64	64	32	16	32	64	32	8	
CCCCCCCCCCCCCCCC(=O)N[C@@H](CCCCN)C(=O)N[C@@H](CCCNC(=N)N)C(=O)N[C@@H](CCCCN)C(=O)N[C@@H](CCCCN)C(N)=O [L4, C16-KRKK-NH2] (Palmitoyl-KRKK-NH2)	79.8 ± 9.0	16 (≈ 20.1 µM)	32 (≈ 40.2 µM)	128	64	>256	32	32	64	16	8	32	32	16	8	
CCCCCCCCCCCCCCCC(=O)N[C@@H](CCCNC(=N)N)C(=O)N[C@@H](CCCCN)C(=O)N[C@@H](CCCCN)C(=O)N[C@@H](CCCCN)C(N)=O [L3, C16-RKKK-NH2] (Palmitoyl-RKKK-NH2)	79.1 ± 6.1	8 (≈ 10 µM)	32 (≈ 40.2 µM)	128	128	256	32	64	64	16	16	32	64	32	16	

Source: article PMC7582905, “Effect of Disulfide Cyclization of Ultrashort Cationic Lipopeptides on Antimicrobial Activity and Cytotoxicity” (International Journal of Molecular Sciences, 2020)
